ChEMBL document CHEMBL1201862, “PubChem BioAssay data set” (2004)
One block for each molecule: values may come before it. The source made the active and inactive calls.

Legend:
[1] = Luminescence Cell-Based Dose Retest to Confirm Inhibitors of Cancer Stem Cells. [Related pubchem assays (depositor defined):AID2717, AID2721]; assay type: functional; conditions: Homo sapiens
[2] = molecular target: Heat shock protein HSP 90-alpha (Homo sapiens, UniProt P07900); assay type: functional, organism-based
[3] = molecular target: T1, Oxysterols receptor LXR-beta (Homo sapiens, UniProt P55055); assay type: functional, cell-based;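 note: agonist activity at LXR measured by a cell-based luminescence readout across a dose range, run as a counterscreen for daf-12 agonists; HEK293 cells with Gal4-LXR fusion and GAL4-driven luciferase reporter; potency for activation of Gal4-LXR reporter so compounds are agonists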
T1 sequence (P55055 whole entry): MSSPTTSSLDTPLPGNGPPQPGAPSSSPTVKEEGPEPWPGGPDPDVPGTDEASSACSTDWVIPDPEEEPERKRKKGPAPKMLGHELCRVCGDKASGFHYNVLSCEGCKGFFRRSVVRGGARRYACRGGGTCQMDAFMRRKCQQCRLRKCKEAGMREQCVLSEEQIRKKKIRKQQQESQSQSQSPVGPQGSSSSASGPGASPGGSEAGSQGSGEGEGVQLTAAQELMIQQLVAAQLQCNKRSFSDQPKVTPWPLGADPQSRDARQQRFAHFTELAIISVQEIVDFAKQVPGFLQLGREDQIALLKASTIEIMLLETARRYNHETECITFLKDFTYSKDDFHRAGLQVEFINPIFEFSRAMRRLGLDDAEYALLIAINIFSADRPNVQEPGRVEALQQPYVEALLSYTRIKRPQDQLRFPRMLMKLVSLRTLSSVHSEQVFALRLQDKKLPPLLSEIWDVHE

[4] = A549 cell cytotoxicity, dose response, cytotoxicity control, plate reader, cherry-pick, antagonist series (AID 743412); assay type: functional, cell-based
[5] = toxicity toward HepG2 liver cells – cell-based, plate reader, cherry-pick, antagonist series, cytotoxicity control, dose response (AID 743416); assay type: functional
[6] = blockers of bursicon-stimulated LGR2 cAMP reporter – cell-based, HEK293, CRE-luciferase reporter, cherry pick, set 2, dose response (AID 743343); assay type: functional;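 note: transfected cells were stimulated with diluted bursicon conditioned medium after compound addition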
[7] = blockade of melanocortin 4 receptor signaling – cell-based, plate reader, cherry pick, counter-screen for LGR2 antagonist project, dose response (AID 743444); assay type: functional;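 note: transfected HEK 293 cells stimulated with alpha-MSH peptide; potency of inhibitors of the alpha-MSH evoked signal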
[8] = viability loss in HEK293 cells – cell-based, plate reader, cherry-picked samples, cytotoxicity control, dose response (AID 743446); assay type: functional
[9] = molecular target: Cyclin-dependent kinase 5/CDK5 activator 1 (Homo sapiens, UniProt Q00535); test: blockade of human CDK5 activity – biochemical, cherry-picked samples, set 2, dose response (AID 504545)
[10] = blockers of HIV-1 envelope-mediated cell-cell fusion – cherry-pick, dose response (AID 652057); assay type: functional, cell-based
[11] = viability loss in CEM21 cells – cell-based, CellTiter-Glo luminescence, cherry-picked, cytotoxicity control for viral fusion inhibitor project, dose response (AID 652042); assay type: functional;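 note: potency for signal decrease meaning cytotoxicity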
[12] = blockers of HIV-1 ZM109 envelope-driven cell-cell fusion – HeLa effector, CEM target cells, luciferase, cherry-pick, dose response (AID 652058); assay type: functional, cell-based;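 note: luciferase signal from HIV-1 Env mediated cell-cell fusion of effector and target cells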
[13] = off-target signal loss in HeLa-CEM21 co-culture – HeLa F-luc CTL cells, cherry-picked, counter-screen for HIV-1 Env fusion inhibitor project, dose response (AID 652040); assay type: functional, cell-based;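 note: potency for signal decrease marking cytotoxic or nonspecific inhibition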
[14] = HIV-1 AD8 envelope cell-cell fusion blockers – cherry-pick, dose response (AID 652062); assay type: functional, cell-based;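 note: luciferase signal from cell-cell fusion driven by HIV-1 clade B AD8 Env; potency is for inhibitors of fusion seen as a drop in luminescence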
Cytochrome P450 2C9 = Cytochrome P450 2C9 (Homo sapiens, UniProt P11712)
[15] = molecular target: T2, DNA repair and recombination protein RAD54-like (Homo sapiens, UniProt Q92698); test: RAD54 Holliday junction migration blockers – biochemical, fluorescence, cherry-picked samples, dose series, confirmation (AID 651657); assay type: functional
T2 sequence (Q92698 whole entry): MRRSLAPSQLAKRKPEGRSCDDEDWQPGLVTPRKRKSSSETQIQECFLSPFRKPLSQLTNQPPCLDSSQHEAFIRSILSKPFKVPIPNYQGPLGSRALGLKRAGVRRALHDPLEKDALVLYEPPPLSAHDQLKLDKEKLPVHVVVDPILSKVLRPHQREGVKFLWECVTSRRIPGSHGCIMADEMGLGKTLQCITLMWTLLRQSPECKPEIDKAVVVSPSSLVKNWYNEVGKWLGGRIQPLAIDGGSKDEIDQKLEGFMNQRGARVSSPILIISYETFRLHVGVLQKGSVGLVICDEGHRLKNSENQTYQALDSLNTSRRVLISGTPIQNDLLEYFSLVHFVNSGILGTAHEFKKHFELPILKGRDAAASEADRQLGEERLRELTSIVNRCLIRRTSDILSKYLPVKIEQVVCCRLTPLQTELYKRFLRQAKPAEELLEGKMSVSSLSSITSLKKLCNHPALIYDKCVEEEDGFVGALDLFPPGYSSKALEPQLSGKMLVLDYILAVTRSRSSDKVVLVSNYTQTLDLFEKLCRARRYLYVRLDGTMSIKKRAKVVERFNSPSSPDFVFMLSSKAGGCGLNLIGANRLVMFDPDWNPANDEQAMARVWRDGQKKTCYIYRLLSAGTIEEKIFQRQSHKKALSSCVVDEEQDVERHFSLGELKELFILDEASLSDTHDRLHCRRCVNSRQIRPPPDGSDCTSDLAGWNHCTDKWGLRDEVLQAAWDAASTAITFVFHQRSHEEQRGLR

[16] = molecular target: T3, DNA repair protein RAD52 homolog (Homo sapiens, UniProt P43351); assay type: functional, biochemical
T3 sequence (P43351 whole entry): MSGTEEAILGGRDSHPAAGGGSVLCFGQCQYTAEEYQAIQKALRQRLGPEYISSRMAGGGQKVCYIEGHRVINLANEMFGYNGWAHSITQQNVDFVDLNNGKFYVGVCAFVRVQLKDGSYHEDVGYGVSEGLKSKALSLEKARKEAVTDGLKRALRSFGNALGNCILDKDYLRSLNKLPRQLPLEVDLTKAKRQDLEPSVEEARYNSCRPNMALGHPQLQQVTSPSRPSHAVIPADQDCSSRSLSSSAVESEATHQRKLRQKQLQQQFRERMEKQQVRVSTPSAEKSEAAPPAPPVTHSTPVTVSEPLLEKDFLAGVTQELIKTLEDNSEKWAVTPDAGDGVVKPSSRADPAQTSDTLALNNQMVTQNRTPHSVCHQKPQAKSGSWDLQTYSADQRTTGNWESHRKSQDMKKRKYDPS

Paired box protein Pax-8 = Paired box protein Pax-8 (Homo sapiens, UniProt Q06710); test: PAX8 transcriptional activity inhibition in RMG-I – RMG-I cells, luciferase, cherry-pick, dose response (AID 687027); assay type: functional, cell-based;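 note: luciferase reporter driven by Pax8 target thyroperoxidase promoter measured by SteadyGlo luminescence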
[17] = OVCAR-3 cell viability loss – plate reader, dry powder samples, PAX8 inhibitor project, dose response (AID 743044); assay type: functional, cell-based
[18] = general cell-killing toxicity readout – plate reader, dry powder samples, cytotoxicity control for PAX8 inhibitor project, dose response (AID 743021); assay type: functional, cell-based
[19] = OVCAR8 cell viability loss – plate reader, dry powder samples, PAX8 project, dose response (AID 743197); assay type: functional, cell-based; conditions: OVCAR-8

Paired box protein Pax-8, sequence (Q06710 whole entry): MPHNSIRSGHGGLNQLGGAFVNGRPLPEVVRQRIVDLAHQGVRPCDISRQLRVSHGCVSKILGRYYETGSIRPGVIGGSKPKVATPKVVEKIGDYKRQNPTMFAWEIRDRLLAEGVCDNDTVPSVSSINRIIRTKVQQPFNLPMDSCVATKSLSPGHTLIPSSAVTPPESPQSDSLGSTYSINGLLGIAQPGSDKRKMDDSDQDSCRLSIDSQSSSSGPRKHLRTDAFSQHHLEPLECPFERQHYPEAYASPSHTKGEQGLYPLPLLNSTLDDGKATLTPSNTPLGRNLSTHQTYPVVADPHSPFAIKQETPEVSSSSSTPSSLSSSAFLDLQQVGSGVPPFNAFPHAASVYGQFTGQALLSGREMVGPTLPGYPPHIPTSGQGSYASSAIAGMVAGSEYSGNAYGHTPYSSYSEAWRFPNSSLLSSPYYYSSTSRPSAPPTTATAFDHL
Cytochrome P450 2C9, sequence (P11712 whole entry): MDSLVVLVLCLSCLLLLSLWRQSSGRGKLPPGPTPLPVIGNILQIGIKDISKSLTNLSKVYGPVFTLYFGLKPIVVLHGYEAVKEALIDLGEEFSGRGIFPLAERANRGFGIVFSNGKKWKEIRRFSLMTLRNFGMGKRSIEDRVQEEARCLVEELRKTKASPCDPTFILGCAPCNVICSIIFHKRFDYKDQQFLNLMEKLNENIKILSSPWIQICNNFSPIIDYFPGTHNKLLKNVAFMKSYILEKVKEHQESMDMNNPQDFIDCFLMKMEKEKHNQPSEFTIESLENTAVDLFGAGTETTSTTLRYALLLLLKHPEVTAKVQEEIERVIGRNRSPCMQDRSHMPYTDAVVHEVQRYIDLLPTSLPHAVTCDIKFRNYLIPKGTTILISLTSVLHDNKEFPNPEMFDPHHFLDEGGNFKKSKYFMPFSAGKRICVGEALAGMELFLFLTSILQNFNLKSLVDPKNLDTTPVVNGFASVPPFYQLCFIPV
Cyclin-dependent kinase 5/CDK5 activator 1, sequence (Q00535 whole entry, the tested form may be a part): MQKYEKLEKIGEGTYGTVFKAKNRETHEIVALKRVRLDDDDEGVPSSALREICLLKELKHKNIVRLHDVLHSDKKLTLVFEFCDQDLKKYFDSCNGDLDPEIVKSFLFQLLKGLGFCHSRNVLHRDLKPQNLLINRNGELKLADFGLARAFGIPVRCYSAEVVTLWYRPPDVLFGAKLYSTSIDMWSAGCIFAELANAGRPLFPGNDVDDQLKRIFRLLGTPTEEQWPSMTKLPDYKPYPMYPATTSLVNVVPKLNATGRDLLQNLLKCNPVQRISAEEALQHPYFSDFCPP
Cyclin-dependent kinase 5/CDK5 activator 1, sequence (Q15078 whole entry, further chain, the tested form may be a part): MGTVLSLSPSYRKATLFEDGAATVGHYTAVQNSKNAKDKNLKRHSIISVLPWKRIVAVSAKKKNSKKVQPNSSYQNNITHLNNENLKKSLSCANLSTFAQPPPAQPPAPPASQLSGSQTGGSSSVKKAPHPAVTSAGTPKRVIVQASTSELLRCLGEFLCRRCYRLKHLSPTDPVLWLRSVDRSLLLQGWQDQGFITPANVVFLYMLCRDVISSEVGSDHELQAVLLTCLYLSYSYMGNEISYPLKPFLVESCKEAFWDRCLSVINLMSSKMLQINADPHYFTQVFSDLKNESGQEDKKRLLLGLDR

Structure (SMILES): Cc1cc(N=Nc2ccc3ccccc3c2)ccc1O
- AC50 [1]: 3.23 µM (active)
- AC50 [2]: 3.92 µM (active)
- EC50 [3]: > 67.6 µM (inactive)

Structure (SMILES): COc1ccc(CC(=O)Nc2cccc(-c3nnc(-c4ccc(C)cc4)o3)c2)cc1OC
- AC50 [4]: 33.4 µM (active)
- AC50 [5]: 30.3 µM (active)
- AC50 [6]: 7.65 µM (active)
- AC50 [7]: 8.14 µM (active)
- AC50 [8]: 10.7 µM (active)

Structure (SMILES): CC1(C)Cc2c(ccc3ccccc23)C(=O)N1
- AC50 [9]: 22.4 µM (active)
- AC50 [10]: 4.84 µM (active)
- AC50 [11]: 47.6 µM (active)
- AC50 [12]: 8.55 µM (active)
- AC50 [13]: 14.1 µM (active)
- AC50 [14]: 2.95 µM (active)
- AC50 (Cytochrome P450 2C9): inconclusive

- AC50 [15]: 20.3 µM (active)
- AC50 [16]: 4.37 µM (active)
Structure (SMILES): CC(=O)Nc1cc(-c2ccc(N3CCN(C)CC3)cc2)cn2c(-c3ccc(S(C)(=O)=O)cc3)cnc12

Structure (SMILES): COc1ccc(S(=O)(=O)N(C)C[C@H]2OCCCC[C@H](C)Oc3ccc(NS(=O)(=O)c4ccc(F)cc4)cc3C(=O)N([C@@H](C)CO)C[C@@H]2C)cc1
- AC50 (Paired box protein Pax-8): 4.67 µM (active)
- AC50 [17]: 21.5 µM (active)
- AC50 [18]: 56.8 µM (active)
- AC50 [19]: 46.1 µM (active)

Structure (SMILES): Cc1ccc(S(=O)(=O)Nc2ccc3c(c2)C(=O)N([C@H](C)CO)C[C@H](C)[C@@H](CN(C)S(=O)(=O)c2ccc(Cl)cc2)OCCCC[C@H](C)O3)cc1
- AC50 (Paired box protein Pax-8): 3.2 µM (active)
- AC50 [17]: 14.4 µM (active)
- AC50 [19]: > 70 µM (inactive)
